Assay results taken from patent US20250361241A1, “HPK1 INHIBITOR AND MEDICAL USE THEREOF” (Betta Pharmaceuticals Co., Ltd., priority 2022, published 2025).

How the values were obtained:
[1] = biological target: T1, HPK1 (Homo sapiens (Human), UniProt Q92918); test: HPK1 enzyme activity detection (1 mM ATP system), ADP-Glo, Pharmacological Experiment 1; format: biochemical
Protocol: Pharmacological Experiment 1: HPK1 Enzyme Activity Detection (1 mM ATP System)
• (1) Take ADP-GloTMKinase Assay Kit (Promega, Cat. No. V9102) to prepare 4× kinase buffer. • (2) Compound gradient dilution: The compound to be tested is diluted 3-fold, and 11 gradient concentrations are set, and each concentration is set for duplicate well detection. Serial dilutions were made in a 384-well plate to the corresponding 100×final concentration solution, and then 0.1 μL was transferred to the 384-well reaction plate for testing using Echo. Transfer 0.1 μL of 100% DMSO to the smallest and largest wells. • (3) Prepare HPK1 enzyme working solution using 4× kinase buffer. • (4) Add 5 μL of HPK1 enzyme working solution to each well and 5 μL of 1× kinase buffer to the smallest well. Centrifuge at 1000 rpm for 1 min and incubate at 25° C. for 15 min. • (5) During the incubation period, prepare the substrate working solution using 4× kinase buffer. • (6) Add 5 μL of substrate working solution containing 1 mM ATP to each well of the reaction plate, centrifuge at 1000 rpm for 1 min, and incubate at 25° C. for 60 min. • (7) At the end of incubation, add 5 μL of ADP Glo reagent to each well. Centrifuge at 1000 rpm for 1 min and incubate at 25° C. for 60 min. • (8) Add 10 μL of detection solution to each well, centrifuge at 1000 rpm for 1 min, and incubate at 25° C. for 60 min. • (9) Read using EnVision.
Inhibition rate calculation formula:
[formula] • Vehicle: Reading value of DMSO control well • Blank: No enzyme well reading • Largest well: Reading value of DMSO control well • Minimum well: No enzyme well reading
The log value of the concentration was used as the X-axis and the percentage inhibition rate was used as the Y-axis. The “log (inhibitor) vs. response—variable slope” of the analysis software GraphPad Prism 5 was used to fit the dose-effect curve to obtain the IC 50 value of the compound's inhibition of kinase binding.
See Table 1 for the enzymatic IC 50 data of the example compounds on HPK1.

[2] = biological target: T1, HPK1; test: HPK1 enzyme activity detection (1 mM ATP system), ADP-Glo with MBP substrate, Pharmacological Experiment 2; format: biochemical
Outline: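 Compound in DMSO preincubated with HPK1 for 15 min at 25 °C, then reaction started with ATP (1 mM system) and MBP substrate for 60 min at 25 °C. ADP formed quantified by ADP-Glo luminescence; IC50 derived from percentage inhibition.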

[3] = PK study of compound in dogs; format: in vivo; details: Beagle dog; for Bioavailability F % / PO Plasma AUC / T1/2: PO 5 mg/kg, DMSO/Solutol/saline
Protocol: Pharmacological Experiment 6: PK Study of Compound in Dogs The compound was mixed with a solvent of saline or 10% DMSO/5% Solutol/85% saline or 10% DMSO/10% Solutol/80% saline (specific solvents are shown in the table below), vortexed and sonicated to prepare a clear oral solution. […] The drug concentration was analyzed by LC-MS/MS method, and the pharmacokinetic parameters were calculated using Phoenix WinNolin software (Pharsight, USA).

[4] = biological target: GLK (Homo sapiens (Human), UniProt Q8IVH8); test: GLK kinase assay (1 mM ATP system), ADP-Glo; format: biochemical
Outline: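 GLK kinase reaction with 1 mM ATP and MBP substrate ran 60 min at 25 °C after 15 min preincubation of enzyme with compound. ADP formed was detected by ADP-Glo luminescence; percent inhibition used to derive IC50.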

[5] = tested on: human peripheral blood mononuclear cells; test: Detection of IFN-γ secretion in human peripheral blood mononuclear cells (anti-CD3/CD28 beads, ELISA); format: cell-based; details: for Maximum induction factor: IFN-γ secretion, human PBMC; for EC3x: concentration for IFN-γ secretion of human PBMC to reach 3 times the baseline, 3 days
Protocol: Pharmacological Experiment 4: Detection of IFN-γ Secretion in Human Peripheral Blood Monocytes
• (1) Take human peripheral blood mononuclear cells frozen in liquid nitrogen, thaw in a 37° C. water bath, add 5 mL of preheated RPMI-1640 complete medium (containing 10% fetal bovine serum and penicillin/streptomycin), centrifuge at 500 g for 10 minutes, and discard the supernatant; • (2) Resuspend the cells in RPMI-1640 complete medium, adjust the density to 5×10^6 cells/mL, inoculate in a low-adhesion 6-well plate (Corning, 3471), and culture at 37° C. for 2 days; • (3) Collect cultured human peripheral blood mononuclear cells, centrifuge at 500 g for 10 min, and discard the supernatant; • (4) Resuspend the cells in RPMI-1640 complete medium, adjust the density to 1×10^6 cells/mL, and inoculate them in a round-bottom 96-well plate (Jet Biofil, TCP-002-096), with 100 μL per well; • (5) Add 50 μL of the test compound to each well and incubate at 37° C. for 30 min; • (6) Take human anti-CD3/CD28 magnetic beads (Miltenyi, 130-091-441), wash once with RPMI-1640 complete medium, and adjust the density to 0.5×106 beads/mL for later use; • (7) After the compound incubation, 50 μL of anti-human CD3/CD28 magnetic beads were added to each well and cultured at 37° C. for 3 days, • (8) The cell culture supernatant was obtained and the IFN-γ secretion was detected using the Human IFN-gamma DuoSet ELISA kit (R&D, DY285B-05); • (9) The log value of concentration was used as the X-axis and the IFN-γ secretion amount was used as the Y-axis. The “log (agonist) vs. response−variable slope” equation of the analysis software GraphPad Prism 7 was used to fit the dose-effect curve, thereby obtaining the EC3x value and the maximum induction factor of the compound for the secretion of IFN-γ from human peripheral blood mononuclear cells to reach 3 times the baseline.

[6] = PK study of compound in monkeys; format: in vivo; details: crab-eating monkey; for IV Plasma Cl_obs: IV 1 mg/kg
Protocol: Pharmacological Experiment 7: PK Study of Compound in Monkeys
The drug concentration was analyzed by LC-MS/MS method, and the pharmacokinetic parameters were calculated using Phoenix WinNolin software (Pharsight, USA).

[7] = tested on: mouse colon cancer cell CT26; test: Efficacy in CT26 CDX model mice (subcutaneous homologous transplant tumor); format: in vivo, Balb/c mouse; details: after 21 days
Protocol: Pharmacological Experiment 8; Study on the Efficacy of the Compound in CT26CDX Model Mice […] The first group (G1) was a vehicle control group (10% propylene glycol/5% HS15/85% glucose). The second group (G2) was the control compound D1-administered group. […] Note: PO stands for oral gavage, QD stands for once daily dosing, and BID stands for twice daily dosing. Tumor size and mouse body weight were measured twice a week during the experiment, and the weight of the animals on that day was used as a reference for each drug administration. The tumor size was measured by using a vernier caliper to measure the length (a) and width (b) of the tumor. The tumor volume (TV) was calculated using the following formula: TV=a*b2/2 After 21 days of administration, the tumor growth inhibition rate (TGI) of each administration group is shown in Table 10.

[8] = tested on: Jurkat cells; test: Jurkat IL-2 secretion detection (anti-CD3/CD28 beads, ELISA); format: cell-based, human; details: for Maximum induction factor: IL-2 secretion, Jurkat cells; for EC3x: concentration for IL-2 secretion of Jurkat cells to reach 3 times the baseline, 20 h
Protocol: Pharmacological Experiment 5: Jurkat IL-2 Secretion Detection
• (1) Take the cultured Jurkat cells, adjust the density to 1×10^6 cells/mL, and inoculate them in a flat-bottom […] plate (Jet Biofil, TCP011096), with 100 μL per well, • (2) Add 50 μL of the test compound to each well and incubate at 37° C. for 30 min; • (3) Take human anti-CD3/CD28 magnetic beads (Miltenyi, 130-091-441), wash once with RPMI-1640 complete medium, and adjust the density to 4×106 beads/mL for later use; • (4) After the compound incubation, 50 μL of anti-human CD3/CD28 magnetic beads were added to each well and cultured at 37° C. for 20 h, • (5) The cell culture supernatant was obtained and the IL-2 secretion was detected using the Human IL-2 DuoSet ELISA kit (R&D, DY008); • (6) The log value of the concentration was used as the X-axis and the IL-2 secretion was used as the Y-axis. The “log (agonist) vs. response-variable slope” equation of the analysis software GraphPad Prism 7 was used to fit the dose-effect curve, thereby obtaining the […] and the […]

[9] = column beside IV plasma Cl_obs (IV 1 mg/kg)

Chain of GLK (Q8IVH8 whole entry, species assumed): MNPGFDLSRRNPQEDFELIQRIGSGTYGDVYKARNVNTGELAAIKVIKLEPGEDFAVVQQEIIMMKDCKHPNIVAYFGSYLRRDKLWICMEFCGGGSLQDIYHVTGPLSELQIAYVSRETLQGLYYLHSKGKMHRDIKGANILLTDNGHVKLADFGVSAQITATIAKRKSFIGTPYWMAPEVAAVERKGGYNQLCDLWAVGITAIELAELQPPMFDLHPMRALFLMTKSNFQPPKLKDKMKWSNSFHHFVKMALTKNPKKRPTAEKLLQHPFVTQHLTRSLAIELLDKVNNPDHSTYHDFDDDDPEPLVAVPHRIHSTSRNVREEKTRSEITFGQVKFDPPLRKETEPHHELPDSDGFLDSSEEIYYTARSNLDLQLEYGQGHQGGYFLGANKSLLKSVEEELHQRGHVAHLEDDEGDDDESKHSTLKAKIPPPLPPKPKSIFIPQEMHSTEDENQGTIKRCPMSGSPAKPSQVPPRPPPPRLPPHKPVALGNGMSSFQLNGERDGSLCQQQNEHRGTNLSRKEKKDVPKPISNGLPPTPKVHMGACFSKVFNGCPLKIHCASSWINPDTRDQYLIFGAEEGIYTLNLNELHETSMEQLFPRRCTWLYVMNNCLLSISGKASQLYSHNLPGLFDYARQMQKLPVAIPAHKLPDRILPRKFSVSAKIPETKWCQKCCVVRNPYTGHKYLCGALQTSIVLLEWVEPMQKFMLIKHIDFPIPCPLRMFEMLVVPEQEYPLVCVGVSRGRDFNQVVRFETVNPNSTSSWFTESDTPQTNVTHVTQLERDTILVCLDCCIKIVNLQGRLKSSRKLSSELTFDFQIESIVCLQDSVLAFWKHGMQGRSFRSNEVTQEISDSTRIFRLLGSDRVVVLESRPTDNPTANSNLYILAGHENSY
T1 sequence (Q92918 whole entry, species assumed): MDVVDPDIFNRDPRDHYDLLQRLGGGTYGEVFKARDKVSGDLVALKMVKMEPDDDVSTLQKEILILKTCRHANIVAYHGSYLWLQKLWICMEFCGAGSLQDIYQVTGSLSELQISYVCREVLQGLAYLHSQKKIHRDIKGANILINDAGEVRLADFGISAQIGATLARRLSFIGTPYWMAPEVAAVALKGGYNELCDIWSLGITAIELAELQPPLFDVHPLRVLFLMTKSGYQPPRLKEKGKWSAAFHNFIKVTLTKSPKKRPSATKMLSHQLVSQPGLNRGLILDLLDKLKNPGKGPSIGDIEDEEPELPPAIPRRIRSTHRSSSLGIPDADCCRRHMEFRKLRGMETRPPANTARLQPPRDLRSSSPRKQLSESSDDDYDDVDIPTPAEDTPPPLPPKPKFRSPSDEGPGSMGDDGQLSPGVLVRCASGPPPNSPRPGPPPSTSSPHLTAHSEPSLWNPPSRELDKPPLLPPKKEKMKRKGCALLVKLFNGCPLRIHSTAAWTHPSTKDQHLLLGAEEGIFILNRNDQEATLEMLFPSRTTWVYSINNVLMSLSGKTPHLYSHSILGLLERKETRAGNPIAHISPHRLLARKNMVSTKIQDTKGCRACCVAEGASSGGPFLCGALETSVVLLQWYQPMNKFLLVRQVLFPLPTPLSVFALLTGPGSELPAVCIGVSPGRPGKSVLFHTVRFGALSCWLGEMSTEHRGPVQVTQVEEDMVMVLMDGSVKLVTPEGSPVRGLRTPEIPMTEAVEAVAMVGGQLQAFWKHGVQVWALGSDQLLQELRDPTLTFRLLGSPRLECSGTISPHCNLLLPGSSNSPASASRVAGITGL

| SMILES | IC50 [1] | IC50 [2] | IC50 [4] | Maximum induction factor [5] | EC3x [5] | Maximum induction factor [8] | EC3x [8] | other results |
| --- | --- | --- | --- | --- | --- | --- | --- | --- |
| Cc1cc(Nc2ccc(-c3cnc4cc(F)ccn34)c3c2C(=O)NC3)cc2c1C1(CCOCC1)CN(C)C2 [Compound 15] | 6.14 nM | – | – | – | – | – | – | – |
| CN(C)[C@@H]1CC2(CCOCC2)c2ccc(Nc3ccc(-c4cnc5cc(OC(F)F)ccn45)c4c3C(=O)NC4)nc21 [Compound 158A, (R)-4-(7-(DIFLUOROMETHOXY)IMIDAZOL 1,2-A]PYRIDIN-3-YL)-7-((7-DIMETHYLAMINO)-2′,3′,5′,6,6′,7-HEXAHYDROSPIRO[CYCLOPENTADIENYL[B]PYRIDINE-54′-PYRAN]-2-YL)AMINO)ISOINDOLIN-1-ONE] | – | 3 nM | 206 nM | 10.8 | 167 nM | – | – | Bioavailability F % [3]: 43%; PO Plasma AUC [3]: 2704 ng·h/mL; T1/2 [3]: 6.06 h |
| Cc1cc(Nc2ccc(-c3cnc4cc(F)ccn34)c3c2C(=O)NC3)cc2c1C1(CC1)CN(C)C2 [Compound 16] | 20.6 nM | – | – | – | – | – | – | – |
| Cc1cc(Nc2cnc(-c3ccnc4c3ccn4C)c3c2C(=O)NC3)cc2c1C1(CCOCC1)CN(C)C2 [Compound 14] | 54.8 nM | – | – | – | – | – | – | – |
| CN(C)Cc1nc(Nc2ccc(-c3cnc4cc(F)ccn34)c3c2C(=O)NC3)ccc1C1CCOCC1 [Compound D1, reference compound] | – | – | – | 4.6 | 528 nM | 8.1 | 544 nM | IV Plasma Cl_obs [6]: 17.6 mL/min/kg; half-life [6, 9]: 4.01 h; AUC ([6]; plasma, PO 5 mg/kg): 1720 ng·h/mL; AUC ([3]; plasma, PO 10 mg/kg, saline): 396 ng·h/mL; half-life ([3]; plasma, PO 10 mg/kg, saline): 3.19 h; bioavailability ([3]; plasma, PO 10 mg/kg, saline, read-out: Bioavailability F %): 11.6%; TGI ([7]; 75 mg/kg PO QD): 38% |
| CN(C)[C@@H]1CC2(CCOCC2)c2ccc(Nc3ccc(-c4cnc5cc(F)ccn45)c4c3C(=O)NC4)nc21 [Compound 2B, (R)-7-((7-(DIMETHYLAMINO)-2′,3′,5′,6,6′,7-HEXAHYDROSPIRO[CYCLOPENTADIENYL[B]PYRIDINE-54′-PYRAN]-2-YL)AMINO)-4-(7-FLUOROIMIDAZO[1,2-A]PYRIDIN-3-YL)ISOINDOLIN-1-ONE] | – | 1.02 nM | 464 nM | 7.7 | 22 nM | 10.9 | 90.7 nM | IV Plasma Cl_obs [6]: 6.16 mL/min/kg; Bioavailability F % ([6]; IV 1 mg/kg and PO 5 mg/kg): 50.2%; PO Plasma AUC ([6]; PO 5 mg/kg): 6302 ng·h/mL; T1/2 [6, 9]: 8.81 h; Bioavailability F % [3]: 48.4%; PO Plasma AUC [3]: 1082 ng·h/mL; T1/2 [3]: 1.65 h; TGI ([7]; 25 mg/kg PO QD): 59%; TGI ([7]; 75 mg/kg PO BID): 90%; TGI ([7]; 75 mg/kg PO QD): 70% |

More lines, main results first:

| IC50 [1] | SMILES | IC50 [2] | IC50 [4] | Maximum induction factor [5] | EC3x [5] | Maximum induction factor [8] | EC3x [8] | other results |
| --- | --- | --- | --- | --- | --- | --- | --- | --- |
| 205 nM | CN(C)C1CC2(CCOCC2)c2ccc(Nc3ccc(-c4cnc5cc(F)ccn45)c4c3C(=O)NC4)cc21 (stereo not shown) [Compound 9] | – | – | – | – | – | – | – |
| 61.2 nM | CN(C)C1CCC2(CCOCC2)c2ccc(Nc3ccc(-c4cnc5cc(F)ccn45)c4c3C(=O)NC4)cc21 (stereo not shown) [Compound 1] | – | – | – | – | – | – | – |
| 7.01 nM | CN(C)C1CC2(CCOCC2)c2ccc(Nc3ccc(-c4cnc5cc(F)ccn45)c4c3C(=O)NC4)nc21 (stereo not shown) [Compound 2, 7-(7-(DIMETHYLAMINO)-2′,3′,5′,6,6′,7-HEXAHYDROSPIRO[CYCLOPENTYL]PYRIDINE-5,4′-PYRAN]-2-YL)AMINO)-4 (7-FLUOROIMIDAZOLE[1,2-A]PYRIDIN-3-YL)ISOINDOL-1-ONE] | 11.2 nM | 1170 nM | 5.9 | 69 nM | 10 | 345 nM | – |
